Data on 13 compounds can be found in PMC4850841 (Journal of medicinal chemistry, 2013).

One series has as its target GluN1/GluN2A (Rattus norvegicus, UniProt Q00959). The series is described as follows: Two electrode voltage clamp recordings, Xenopus laevis oocytes. Type of series: cell-based. The conditions noted are these: 100 µM glutamate, 30 µM glycine. For orientation: Two-electrode voltage clamp is typically applied to oocytes expressing channels or transporters.
For the next series, the target named is GluN1/GluN2B (Rattus norvegicus, UniProt Q00960). The series is described as above. Type of series: cell-based. Conditions: 100 µM glutamate, 30 µM glycine.
Sequence of GluN1/GluN2B (Q00960 27-1482, other chains not shown): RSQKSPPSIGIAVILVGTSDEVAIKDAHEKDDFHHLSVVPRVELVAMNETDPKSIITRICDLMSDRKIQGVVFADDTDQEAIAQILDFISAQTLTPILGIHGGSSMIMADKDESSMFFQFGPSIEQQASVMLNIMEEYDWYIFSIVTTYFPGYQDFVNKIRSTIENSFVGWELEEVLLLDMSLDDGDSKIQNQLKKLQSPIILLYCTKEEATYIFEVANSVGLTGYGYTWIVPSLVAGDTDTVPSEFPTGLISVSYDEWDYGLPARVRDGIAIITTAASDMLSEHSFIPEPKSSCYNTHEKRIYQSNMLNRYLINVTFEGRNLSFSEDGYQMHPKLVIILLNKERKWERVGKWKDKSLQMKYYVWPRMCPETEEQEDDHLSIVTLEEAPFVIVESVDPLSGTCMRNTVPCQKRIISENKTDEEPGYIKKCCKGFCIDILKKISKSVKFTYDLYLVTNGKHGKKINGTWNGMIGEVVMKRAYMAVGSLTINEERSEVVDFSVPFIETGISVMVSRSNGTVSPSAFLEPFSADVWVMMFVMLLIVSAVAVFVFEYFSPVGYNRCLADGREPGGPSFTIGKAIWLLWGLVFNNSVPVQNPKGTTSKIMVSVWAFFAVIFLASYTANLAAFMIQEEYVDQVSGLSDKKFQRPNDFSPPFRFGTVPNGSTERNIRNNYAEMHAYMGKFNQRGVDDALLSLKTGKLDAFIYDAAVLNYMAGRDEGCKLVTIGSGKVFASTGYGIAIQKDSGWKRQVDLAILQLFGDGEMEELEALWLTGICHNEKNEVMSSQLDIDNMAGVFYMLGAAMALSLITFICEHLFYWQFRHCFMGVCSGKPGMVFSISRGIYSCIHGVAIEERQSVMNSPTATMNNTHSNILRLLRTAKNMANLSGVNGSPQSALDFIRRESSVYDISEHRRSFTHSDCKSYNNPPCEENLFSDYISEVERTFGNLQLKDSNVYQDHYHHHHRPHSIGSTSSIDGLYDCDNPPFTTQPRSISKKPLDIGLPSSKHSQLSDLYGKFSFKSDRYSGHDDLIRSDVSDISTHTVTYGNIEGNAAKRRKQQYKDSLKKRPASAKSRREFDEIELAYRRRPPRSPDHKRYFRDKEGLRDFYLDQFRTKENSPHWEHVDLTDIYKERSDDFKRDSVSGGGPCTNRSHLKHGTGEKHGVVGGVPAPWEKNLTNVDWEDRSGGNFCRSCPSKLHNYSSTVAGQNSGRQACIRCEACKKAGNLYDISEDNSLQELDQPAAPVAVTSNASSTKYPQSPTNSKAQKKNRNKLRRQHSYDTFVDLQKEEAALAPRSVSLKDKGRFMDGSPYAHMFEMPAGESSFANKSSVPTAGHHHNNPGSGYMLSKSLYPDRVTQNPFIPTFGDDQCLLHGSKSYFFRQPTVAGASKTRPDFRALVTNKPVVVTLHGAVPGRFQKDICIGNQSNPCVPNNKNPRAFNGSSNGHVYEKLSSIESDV
In series [1] the test system is GluN2C/D-containing NMDA receptors. The series is described as follows: Potentiation of NMDA receptors, results stated jointly for both subtypes. The series is classed as cell-based, rat. Conditions: for EC50: read-out: EC50, GluN2C/GluN2D stated jointly.
The target in another series is GluA1 (Rattus norvegicus, UniProt P19490). As to the kind of experiment: Two electrode voltage clamp recordings, Xenopus laevis oocytes. The series is classed as cell-based. Conditions: co-applied with 100 µM glutamate.
A further series addresses GluK2 (Rattus norvegicus, UniProt P42260). The description is as above. Type of series: cell-based. The conditions noted are these: co-applied with 100 µM glutamate.
The nature of series [2]: Stability of potentiator activity of compound solution. Type of series: physicochemical.
Series [3] concerns the target GluN1/GluN2C (Rattus norvegicus, UniProt P35439+Q00961). As to the kind of experiment: Two electrode voltage clamp recordings, Xenopus laevis oocytes. The series is classed as cell-based.
Series [4] has as its system GluN2C/D-containing NMDA receptors. The conditions noted are these: cited from earlier work.
A further series addresses GluN1/GluN2D (Rattus norvegicus, UniProt Q62645). As to the kind of experiment: Two electrode voltage clamp recordings, Xenopus laevis oocytes. Type of series: cell-based. Conditions: for activity at GluN1/GluN2D: 100 µM glutamate, 30 µM glycine.
Series [5] addresses GluN1/GluN2C (Rattus norvegicus, UniProt Q00961). The series is described as above. The series is classed as cell-based. Conditions: for activity at GluN1/GluN2C: 100 µM glutamate, 30 µM glycine.
For a further series, the system named is sigma receptor σ1. Type of series: binding. Conditions: 5 µM compound 83; n=4.
Series [6] relates to GABA, glycine, serotonin, nicotinic acetylcholine, AMPA, kainate, and purinergic receptors. Type of series: cell-based.
In a further series the target is κ opioid receptors (Homo sapiens, UniProt P41145). Type of series: binding. Conditions: 5 µM compound 83.
For series [7], the system named is peripheral benzodiazepine site. Type of series: binding. The conditions noted are these: 5 µM compound 83; n=4.
Series [8] deals with brain benzodiazepine site. Type of series: binding. Conditions: 5 µM compound 83; n=4.
The next series has as its system sigma receptor σ2. The series is classed as binding. The conditions noted are these: 5 µM compound 83; n=4.
[9] abbreviates: maximally effective concentrations of glutamate and glycine.
[10] abbreviates: 10 µM compound co-applied with 100 µM glutamate and 30 µM glycine.

Where two headings read alike, the source gives them in different places.

Sequence of GluN1/GluN2D (Q62645 28-1323, other chains not shown): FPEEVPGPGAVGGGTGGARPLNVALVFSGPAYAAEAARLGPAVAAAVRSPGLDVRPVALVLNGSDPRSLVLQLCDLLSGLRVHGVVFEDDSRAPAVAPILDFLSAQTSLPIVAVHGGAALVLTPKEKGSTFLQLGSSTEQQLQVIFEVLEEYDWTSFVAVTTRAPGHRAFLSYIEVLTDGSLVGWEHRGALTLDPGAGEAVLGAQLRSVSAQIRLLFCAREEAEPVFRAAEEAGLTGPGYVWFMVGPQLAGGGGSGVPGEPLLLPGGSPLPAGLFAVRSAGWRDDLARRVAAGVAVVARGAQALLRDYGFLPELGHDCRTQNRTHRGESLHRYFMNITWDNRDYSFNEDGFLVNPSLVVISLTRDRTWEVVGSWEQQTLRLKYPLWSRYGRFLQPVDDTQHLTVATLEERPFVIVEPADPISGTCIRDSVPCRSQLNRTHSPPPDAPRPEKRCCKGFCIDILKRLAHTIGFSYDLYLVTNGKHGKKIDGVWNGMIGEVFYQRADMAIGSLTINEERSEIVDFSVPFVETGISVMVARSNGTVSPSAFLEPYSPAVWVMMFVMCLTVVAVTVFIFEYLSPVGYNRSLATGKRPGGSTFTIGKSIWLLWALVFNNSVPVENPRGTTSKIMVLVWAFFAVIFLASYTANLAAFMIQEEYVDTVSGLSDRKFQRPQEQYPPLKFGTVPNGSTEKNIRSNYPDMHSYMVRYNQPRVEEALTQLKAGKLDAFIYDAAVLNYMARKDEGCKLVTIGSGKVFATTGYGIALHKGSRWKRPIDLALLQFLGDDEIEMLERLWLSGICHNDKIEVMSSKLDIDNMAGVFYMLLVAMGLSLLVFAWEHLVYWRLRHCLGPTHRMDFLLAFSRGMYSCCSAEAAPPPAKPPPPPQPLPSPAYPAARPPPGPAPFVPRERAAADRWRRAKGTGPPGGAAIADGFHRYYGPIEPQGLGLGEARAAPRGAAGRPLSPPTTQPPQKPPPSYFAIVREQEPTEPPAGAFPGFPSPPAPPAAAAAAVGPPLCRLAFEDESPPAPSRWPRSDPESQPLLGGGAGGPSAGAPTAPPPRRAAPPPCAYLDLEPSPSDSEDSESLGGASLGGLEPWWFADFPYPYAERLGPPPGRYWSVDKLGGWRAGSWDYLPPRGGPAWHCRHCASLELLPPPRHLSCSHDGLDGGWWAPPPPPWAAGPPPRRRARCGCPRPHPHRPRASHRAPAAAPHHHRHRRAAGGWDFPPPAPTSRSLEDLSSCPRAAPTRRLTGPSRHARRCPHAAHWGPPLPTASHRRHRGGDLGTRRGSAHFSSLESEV
Sequence of GluN1/GluN2A (Q00959 23-1464, other chains not shown): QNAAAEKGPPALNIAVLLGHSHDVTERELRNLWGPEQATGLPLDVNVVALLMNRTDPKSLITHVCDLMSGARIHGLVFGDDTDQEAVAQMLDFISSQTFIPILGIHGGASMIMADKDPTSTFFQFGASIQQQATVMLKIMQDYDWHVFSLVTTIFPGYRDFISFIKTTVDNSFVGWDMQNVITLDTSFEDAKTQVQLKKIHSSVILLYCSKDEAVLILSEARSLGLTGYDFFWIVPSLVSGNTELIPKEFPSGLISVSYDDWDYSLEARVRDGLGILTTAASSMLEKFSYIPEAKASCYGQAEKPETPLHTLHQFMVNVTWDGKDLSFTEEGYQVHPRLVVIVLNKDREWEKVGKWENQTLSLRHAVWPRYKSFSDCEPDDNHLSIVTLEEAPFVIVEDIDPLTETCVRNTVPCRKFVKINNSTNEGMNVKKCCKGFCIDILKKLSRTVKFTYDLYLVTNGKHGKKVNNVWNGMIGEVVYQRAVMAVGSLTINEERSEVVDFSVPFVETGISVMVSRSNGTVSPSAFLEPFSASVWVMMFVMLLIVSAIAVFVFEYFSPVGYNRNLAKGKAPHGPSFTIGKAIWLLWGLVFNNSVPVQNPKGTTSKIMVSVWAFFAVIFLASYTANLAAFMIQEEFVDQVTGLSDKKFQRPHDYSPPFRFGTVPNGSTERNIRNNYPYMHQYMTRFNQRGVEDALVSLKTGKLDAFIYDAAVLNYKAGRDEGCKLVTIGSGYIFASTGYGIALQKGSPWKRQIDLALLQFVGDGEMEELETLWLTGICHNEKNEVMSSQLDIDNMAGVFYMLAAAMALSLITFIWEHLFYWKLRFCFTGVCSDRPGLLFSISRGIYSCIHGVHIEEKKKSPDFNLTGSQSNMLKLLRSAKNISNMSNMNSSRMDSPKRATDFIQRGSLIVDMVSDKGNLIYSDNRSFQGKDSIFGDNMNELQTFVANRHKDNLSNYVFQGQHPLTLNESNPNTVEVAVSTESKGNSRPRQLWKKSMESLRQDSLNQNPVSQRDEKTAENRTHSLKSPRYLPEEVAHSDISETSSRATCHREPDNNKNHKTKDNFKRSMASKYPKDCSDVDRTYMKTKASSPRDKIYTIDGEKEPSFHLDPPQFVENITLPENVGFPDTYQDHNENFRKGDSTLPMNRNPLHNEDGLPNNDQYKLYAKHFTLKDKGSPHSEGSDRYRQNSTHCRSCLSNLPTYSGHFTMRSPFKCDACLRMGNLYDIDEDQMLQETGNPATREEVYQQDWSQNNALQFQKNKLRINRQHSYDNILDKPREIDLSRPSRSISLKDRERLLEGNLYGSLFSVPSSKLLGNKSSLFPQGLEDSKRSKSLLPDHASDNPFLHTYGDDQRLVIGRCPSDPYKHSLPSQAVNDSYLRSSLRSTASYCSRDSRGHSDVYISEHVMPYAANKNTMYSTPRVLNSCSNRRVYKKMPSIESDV
Sequence of GluK2 (P42260 32-908): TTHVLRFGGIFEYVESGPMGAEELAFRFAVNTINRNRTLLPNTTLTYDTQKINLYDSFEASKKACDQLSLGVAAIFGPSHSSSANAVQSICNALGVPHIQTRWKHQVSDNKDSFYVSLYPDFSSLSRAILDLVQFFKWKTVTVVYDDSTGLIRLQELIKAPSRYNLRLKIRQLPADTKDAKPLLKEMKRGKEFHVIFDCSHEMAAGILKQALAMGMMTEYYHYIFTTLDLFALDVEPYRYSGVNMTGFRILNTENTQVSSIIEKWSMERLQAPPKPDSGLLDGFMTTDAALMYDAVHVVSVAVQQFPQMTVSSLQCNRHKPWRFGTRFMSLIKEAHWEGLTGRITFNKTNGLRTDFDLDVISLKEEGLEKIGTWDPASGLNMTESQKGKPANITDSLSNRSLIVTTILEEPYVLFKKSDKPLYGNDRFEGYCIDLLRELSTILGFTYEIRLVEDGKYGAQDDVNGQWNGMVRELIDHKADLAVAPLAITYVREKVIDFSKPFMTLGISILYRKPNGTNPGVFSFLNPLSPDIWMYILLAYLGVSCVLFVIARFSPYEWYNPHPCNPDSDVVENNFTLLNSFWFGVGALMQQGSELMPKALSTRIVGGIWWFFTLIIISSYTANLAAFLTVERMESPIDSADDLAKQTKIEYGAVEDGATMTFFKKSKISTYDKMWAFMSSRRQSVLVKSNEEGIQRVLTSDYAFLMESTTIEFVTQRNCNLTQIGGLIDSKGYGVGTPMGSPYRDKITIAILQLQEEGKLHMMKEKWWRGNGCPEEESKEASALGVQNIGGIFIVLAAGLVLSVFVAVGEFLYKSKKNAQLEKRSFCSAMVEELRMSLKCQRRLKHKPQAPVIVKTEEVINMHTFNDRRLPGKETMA

`COc1ccc(OC[C@@H]2c3cc(OC)c(OC)cc3CCN2C(=O)c2cccc(Cl)c2)cc1` [2-S, (S)-(3-chlorophenyl)(6,7-dimethoxy-1-((4-methoxyphenoxy)methyl)-3,4-dihydroisoquinolin-2(1H)-yl)methanone]: the “effect on GluN1/GluN2A responses” value on GluN1/GluN2A is reported as “no effect”. For the same compound, on GluN1/GluN2B, the “effect on GluN1/GluN2B responses” value is “no effect”.

In the case of `COc1ccc(OCC2c3cc(OC)c(OC)cc3CCN2C(=O)c2ccccc2)cc1` (centres unmarked) [compound 1, (6,7-dimethoxy-1-((4-methoxyphenoxy)methyl)-3,4-dihydroisoquinolin-2(1H)-yl)(phenyl)methanone], the “enhancement of response of GluN2C/D-containing NMDA receptors” value in series [1] (setting [9]) was 1.5 fold. The “agonist activity on their own” value in [1] (without co-agonists) was “no agonist activity”. The “effect on homomeric GluA1 responses” value at GluA1 is reported as “no effects”. Moreover, the “effect on GluK2-mediated currents” value at GluK2 was “no effect”.

As to `COc1ccc(OCC2c3cc(OC)c(OC)cc3CCN2C(=O)c2cccc(Cl)c2)cc1` (centres unmarked) [compound 2], the EC50 in [1] (setting [9]) is 4.6 to 5 µM; at GluN1/GluN2C [3] it was 4.6 µM; in series [4] (read-out: reported EC50), 3 µM. The “activity of solution after 24 hours” value in [2] (24 hours after making the solution) is “no activity”. Further, the “activity (potency and efficacy) retained without loss until” value in series [2] (compound solutions tested on GluN1/GluN2C in BHK cells at different time points) came to 6 h. The “effect on homomeric GluA1 responses” value on GluA1 was “no effects”. Also, on GluK2, the “effect on GluK2-mediated currents” value is on record as “no effect”. In addition, in [4], the “enhancement of receptor responses” value is listed as “less than 2 fold”.

Take `COc1cc2c(cc1OC)CN(C(=O)c1ccccc1)CC2` [compound 5, (6,7-dimethoxy-3,4-dihydroisoquinolin-2(1H)-yl)(phenyl)methanone]: on GluN1/GluN2A, the “effect on GluN1/GluN2A responses” value is “inactive”. The “activity at GluN1/GluN2D” value at GluN1/GluN2D was “inactive”. On GluN1/GluN2B, the “effect on GluN1/GluN2B responses” value is “inactive”. Besides, the “effect on homomeric GluA1 responses” value at GluA1 is given as “no effects”. Further, at GluN1/GluN2C [5], the “activity at GluN1/GluN2C” value was “inactive”.

In the case of `COc1cc2c(cc1OC)CN(C(=O)c1cccc(Cl)c1)CC2` [compound 6, (3-chlorophenyl)(6,7-dimethoxy-3,4-dihydroisoquinolin-2(1H)-yl)methanone], the “effect on GluN1/GluN2A responses” value at GluN1/GluN2A was “inactive”. Moreover, the “activity at GluN1/GluN2D” value on GluN1/GluN2D is “inactive”. For the same compound, the “effect on GluN1/GluN2B responses” value at GluN1/GluN2B is “inactive”. In addition, the “activity at GluN1/GluN2C” value at GluN1/GluN2C [5] was “inactive”.

On to `COc1cc2c(cc1OC)CN(C(=O)c1cccc(Br)c1)CC2` [compound 7, (3-bromophenyl)(6,7-dimethoxy-3,4-dihydroisoquinolin-2(1H)-yl)methanone], for which, on GluN1/GluN2A, the “effect on GluN1/GluN2A responses” value was “inactive”. The “activity at GluN1/GluN2D” value at GluN1/GluN2D was “inactive”. For the same compound, the “effect on GluN1/GluN2B responses” value on GluN1/GluN2B is “inactive”. Also, the “activity at GluN1/GluN2C” value at GluN1/GluN2C [5] was “inactive”.

Consider `COc1ccc(OCC2c3ccc(OCc4ccccc4)cc3CCN2C(=O)c2cccc(Br)c2)cc1` (centres unmarked) [compound 83, (6-(benzyloxy)-1-((4-methoxyphenoxy)methyl)-3,4-dihydroisoquinolin-2(1H)-yl)(3-bromophenyl)methanone], for which the “inhibition of ligand binding” value (with sigma receptor σ1; in [7]; in [8]; in the series with sigma receptor σ2) was “less than 50%” each time. For the same compound, in [1] (setting [9]), the EC50 fell in the range of 0.3 to 0.4 µM. The “selectivity for GluN2C or GluN2D compared to these receptors” value in [6] is “approximately 100 fold”. For the same compound, the “inhibition of off-target receptors” value in [6] (3 µM compound 83) is “less than 10%”. The “potentiation of off-target receptors” value in series [6] (3 µM compound 83) is on record as less than 5%. Also, on κ opioid receptors, the “initial screen at κ opioid receptors” value is “significant inhibition”.

Consider `COc1ccc(CCC2c3cc(OC)c(OC)cc3CCN2C(=O)c2cccc(Br)c2)cc1` (centres unmarked) [compound 162, (3-bromophenyl)(6,7-dimethoxy-1-(4-methoxyphenethyl)-3,4-dihydroisoquinolin-2(1H)-yl)methanone], for which, on GluA1, the “effect on homomeric GluA1 responses” value was “no effects”.

As to `COc1ccc(OCC2c3cc(OC)c(OC)cc3CCN2C(=O)c2cccc(Br)c2)cc1` (centres unmarked) [compound 190], the “effect on homomeric GluA1 responses” value at GluA1 is “no effects”. Further, the “effect on GluK2-mediated currents” value on GluK2 is “no effect”.

For `COc1ccc(OCC2c3cc(OC)c(OC)cc3CCN2C(=O)c2cccc(F)c2)cc1` (centres unmarked) [compound 197], the “effect on homomeric GluA1 responses” value at GluA1 was “no effects”. Moreover, the “effect on GluK2-mediated currents” value on GluK2 is recorded as “no effect”.

As for `COc1ccc(OCC2c3cc(OC)c(OC)cc3CCN2C(=O)c2cccs2)cc1` (centres unmarked) [compound 203], the “activity at GluN1/GluN2D” value on GluN1/GluN2D was “no or minimal potentiating effects”. In addition, the “activity at GluN1/GluN2C” value at GluN1/GluN2C [5] is “weak activity”.

Turning to `COC(=O)c1ccc(OCC2c3cc(OC)c(OC)cc3CCN2C(=O)c2cccc(Br)c2)cc1` (centres unmarked) [compound 207], the “activity at GluN1/GluN2C” value at GluN1/GluN2C [5] is listed as “weakly active”.

In the case of “(1-((4-(benzyloxy)phenoxy)methyl)-6,7-dimethoxy-3,4-dihydroisoquinolin-2(1H)-yl)(3-chlorophenyl)methanone [compound 109]”, in series [1], the “activity on GluN2C- or GluN2D-containing receptors” value was “no detectable activity”. In addition, the “I10 µM / ICONTROL (mean ± SEM, %) GluN2D” value at GluN1/GluN2D (setting [10]) is listed as 93 ± 2.5%. For the same compound, the “I10 µM / ICONTROL (mean ± SEM, %) GluN2C” value at GluN1/GluN2C [5] (setting [10]) stood at 93 ± 1.6%.
